Take `O=c1c(Cc2cccnc2)nc2cccnc2n1-c1cccc(-c2cncc3ccccc23)c1` [Example 54(30), 4-[3-(4-Isoquinolyl)phenyl]-2-(3-pyridylmethyl)-3-oxo-3,4-dihydropyrido[2,3-b]pyrazine]: the melting point lay within 157 to 163 °C.
The same measure for `O=C(Nc1cccc(-c2cccc(-n3c(=O)c(Cc4cccnc4)nc4cccnc43)c2)c1)c1cc2ccccc2s1` [Example 76(3), 4-[3-[3-[(Benzo[b]thiophen-2-yl)carbonylamino]phenyl]phenyl]-2-(3-pyridylmethyl)-3-oxo-3,4-dihydropyrido[2,3-b]pyrazine]: 216 to 218 °C.
The same measure for `COC(=O)c1cccn1-c1cccc(-n2c(=O)c(Cc3ccccc3)nc3cccnc32)c1` [Example 68(17), 2-Benzyl-4-[3-(2-methoxycarbonylpyrrol-1-yl)phenyl]-3-oxo-3,4-dihydropyrido[2,3-b]pyrazine]: 190 to 191 °C; for `COC(=O)[C@@H]1CCCN1C(=O)CCc1nc2cccnc2n(-c2cccc(NC(=O)Nc3ccccc3OC)c2)c1=O` [Example 36, 4-[3-[3-(2-Methoxyphenyl)ureido]phenyl]-3-oxo-2-[2[(2S)-2-methoxycarbonylpyrrolidin-1-yl]carbonylethyl]-3,4-dihydropyrido[2,3-b]pyrazine]: 209 to 212 °C; for `N#Cc1cccn1-c1cccc(-n2c(=O)c(Cc3ccccc3)nc3cccnc32)c1` [Example 45(7), 2-Benzyl-4-[3-(2-cyanopyrrol-1-yl)phenyl]-3-oxo-3,4-dihydropyrido[2,3-b]pyrazine]: 165 to 166 °C.
The same measure for `O=C(Nc1cccc(-n2c(=O)c(Cc3cccnc3)nc3cccnc32)c1)Nc1ccccc1[N+](=O)[O-]` [Example 50(3), 4-[3-[3-(2-Nitrophenyl)ureido]phenyl]-2-(3-pyridylmethyl)-3-oxo-3,4-dihydropyrido[2,3-b]pyrazine]: 188 to 189 °C; for `COc1ccccc1NC(=O)Nc1ccc(F)c(-n2c(=O)c(Cc3cccnc3)nc3cccnc32)c1` [Example 50(2), 4-[2-Fluoro-5-[3-(2-methoxyphenyl)ureido]phenyl]-2-(3-pyridylmethyl)-3-oxo-3,4-dihydropyrido[2,3-b]pyrazine]: 152 to 155 °C.
In turn, `Nc1cccc(-n2c(=O)c(Cc3cccnc3)nc3cccnc32)c1` [Example 46, 4-(3-aminophenyl)-2-(3-pyridylmethyl)-3-oxo-3,4-dihydropyrido[2,3-b]pyrazine] displayed a melting point of 168 to 170 °C.
The result for `CCCOC(=O)CCc1nc2cccnc2n(-c2cccc(NC(=O)Nc3ccccc3OC)c2)c1=O` [Example 34(1), 4-[3-[3-(2-Methoxyphenyl)ureido]phenyl]-3-oxo-2-(2-propyloxycarbonylethyl)-3,4-dihydropyrido[2,3-b]-pyrazine] reads 161 to 163 °C.
Molecule `O=C(Nc1ccc(F)c(-n2c(=O)c(Cc3cccnc3)nc3cccnc32)c1)c1ccc2ccccc2c1` [Example 41(20), 4-[2-Fluoro-5-(2-naphthoylamino)phenyl]-2-(3-pyridylmethyl)-3-oxo-3,4-dihydropyrido[2,3-b]pyrazine] yielded a melting point of 264 to 268 °C.
The same measure for `O=C(Nc1ccccc1)Nc1cccc(-c2cccc(-n3c(=O)c(Cc4cccnc4)nc4cccnc43)c2)c1` [Example 74, 4-[3-[3-(3-Phenylureido)phenyl]phenyl]-2-(3-pyridylmethyl)-3-oxo-3,4-dihydropyrido[2,3-b]pyrazine]: 234 °C.
The result for `CC(=O)c1cn(-c2cccc(-n3c(=O)c(Cc4ccccc4)nc4cccnc43)c2)c2ccccc12` [Example 45(11), 2-Benzyl-4-[3-(3-acetylindol-1-yl)phenyl]-3-oxo-3,4-dihydropyrido[2,3-b]pyrazine] reads 157 to 159 °C; that for `COc1ccccc1NC(=O)Nc1cccc(-n2c(=O)c(CCC(=O)N(C)C)nc3cccnc32)c1` [Example 24, 2-[2-(N,N-dimethylcarbamoyl)ethyl]-3-oxo-4-[3-[3-(2-methoxyphenyl)-ureido]phenyl]-3,4-dihydropyrido[2,3-b]pyrazine], 242 to 245 °C.

By melting point is commonly meant the temperature, or range, at which the solid turns liquid.

The values above are taken from patent US6727245B2, “Heterobicyclic derivatives” (Fujisawa Pharmaceutical Co., Ltd., priority 1994, dated 2004).
